Molecular target: T1, TGF-beta receptor type-1 (Homo sapiens, UniProt P36897)
T1 sequence (P36897 whole entry): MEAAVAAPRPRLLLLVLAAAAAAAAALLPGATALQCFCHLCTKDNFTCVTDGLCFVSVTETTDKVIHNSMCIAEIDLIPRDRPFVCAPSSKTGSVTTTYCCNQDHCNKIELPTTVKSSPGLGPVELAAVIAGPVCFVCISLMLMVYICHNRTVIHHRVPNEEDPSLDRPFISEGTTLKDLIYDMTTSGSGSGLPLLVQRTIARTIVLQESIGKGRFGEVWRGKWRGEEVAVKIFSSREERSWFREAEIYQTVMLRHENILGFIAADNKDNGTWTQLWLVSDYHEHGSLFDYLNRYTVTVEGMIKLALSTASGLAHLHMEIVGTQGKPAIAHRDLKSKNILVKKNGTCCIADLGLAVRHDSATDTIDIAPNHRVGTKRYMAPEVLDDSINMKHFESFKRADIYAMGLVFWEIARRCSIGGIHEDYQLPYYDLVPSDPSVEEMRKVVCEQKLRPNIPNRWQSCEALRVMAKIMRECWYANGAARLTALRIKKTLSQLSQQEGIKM
Assay: Kinase Activity Assay
Protocol: The principle of the activity assay was that TGFβR1 phosphorylates the substrate TGFβR1tide, consuming ATP in the process. […] The specific experimental steps were as follows. Compounds were diluted 4-fold in DMSO in a dilution plate, with the final starting concentration of the compounds being 10 μM, across 10 concentration gradient points. The compounds were then further diluted 50-fold into the kinase reaction buffer and incubated on a shaker for 20 minutes. Kinase was formulated with an enzyme reaction buffer. 2 μl kinase was added to each well of the reaction plate. 1 μl of the compound diluted in buffer was added to each well, and then the plate was sealed with a sealing membrane and centrifuged at 1000 g for 30 seconds, leaving it at room temperature for 10 minutes. Solutions of TGFβR1tide and ATP were prepared with the kinase reaction buffer, and 2 μL of the TGFβR1tide/ATP solution was added to the reaction plate. The plate was sealed with a sealing film and centrifuged at 1000 g for 30 seconds. It was allowed to react at room temperature for 60 minutes. Subsequently, 4 μL of ADP-Glo was transferred to a 384-well reaction plate and centrifuged at 1000 rpm/min for 1 minute, followed by incubation at 25° C. for 40 minutes. Then, 8 μL of Detection solution was transferred to the 384-well reaction plate and centrifuged at 1000 rpm/min for 1 minute, after which it was incubated at 25° C. for 40 minutes. The RLU (Relative Luminescence Unit) signal was read using a BMG microplate reader, which was used to characterize the degree of kinase activity.

Row | SMILES | IC50 [nM]
1 | Cc1cccc(-c2nn(Cc3ccccc3)cc2-c2ccnc(-c3nc4c([nH]3)CN(C(=O)N3CCN(C)CC3)C4)c2)n1 [US20250179094, Compound 23] | 0.9
2 | Cc1cccc(-c2nc3n(c2-c2ccnc(-c4nc5c([nH]4)CN(C(=O)N4CCC(O)CC4)C5)c2)CCC3)n1 [US20250179094, Compound 27] | 4.3
3 | Cc1cccc(-c2nc3n(c2-c2ccnc(-c4nc5c([nH]4)CN(C(=O)N4CC[C@@H](O)C4)C5)c2)CCC3)n1 [US20250179094, Compound 15] | 16
4 | Cc1cccc(-c2nn(C(C)C)cc2-c2ccnc(-c3nc4c([nH]3)CN(C(=O)N3CCN(C)CC3)C4)c2)n1 [US20250179094, Compound 22] | 7.5
5 | Cc1cccc(-c2nn(C)cc2-c2ccnc(-c3nc4c([nH]3)CN(C(=O)N3CCN(C)CC3)C4)c2)n1 [US20250179094, Compound 37] | 6.5
6 | Cc1cccc(-c2nn(Cc3cccc(F)c3)cc2-c2ccnc(-c3nc4c([nH]3)CN(C(=O)C3CC(O)C3)C4)c2)n1 (centres undefined) [US20250179094, Compound 57] | 9.9
7 | Cc1cccc(-c2nn3c(c2-c2ccnc(-c4nc5c([nH]4)CN(C(=O)N4CCN(C)CC4)C5)c2)CCC3)n1 [US20250179094, Compound 62] | 0.9
8 | Cc1cccc(-c2nn(Cc3cccc(F)c3)cc2-c2ccnc(-c3nc4c([nH]3)CN(C(=O)N3CCN(C)CC3)C4)c2)n1 [US20250179094, Compound 40] | 1.6
9 | Cc1cccc(-c2nc3n(c2-c2ccnc(-c4nc5c([nH]4)CN(C(=O)N4CCN(C)CC4)C5)c2)CCOC3)n1 [US20250179094, Compound 61] | 6.9
10 | Cc1cccc(-c2nn3c(c2-c2ccnc(-c4nc5c([nH]4)CN(C(=O)N4CCOCC4)C5)c2)CCC3)n1 [US20250179094, Compound 71] | 0.67
11 | Cc1cccc(-c2nn(CC3CC3)cc2-c2ccnc(-c3nc4c([nH]3)CN(C(=O)N3CCN(C)CC3)C4)c2)n1 [US20250179094, Compound 43] | 2.7
12 | Cc1cccc(-c2nc3n(c2-c2ccnc(-c4nc5c([nH]4)CN(C(=O)N4CC[C@@H](N(C)C)C4)C5)c2)CCC3)n1 [US20250179094, Compound 34] | 1.9
13 | Cc1cccc(-c2nn(Cc3ccccc3)cc2-c2ccnc(-c3nc4c([nH]3)CN(C(=O)C3CC(O)C3)C4)c2)n1 (centres undefined) [US20250179094, Compound 56] | 23
14 | Cc1cccc(-c2nc3n(c2-c2ccnc(-c4nc5c([nH]4)CN(C(=O)N4CCOCC4)C5)c2)CCC3)n1 [US20250179094, Compound 33] | 1.7
15 | Cc1cccc(-c2nn3c(c2-c2ccnc(-c4nc5c([nH]4)CN(C(=O)N4CCC(O)CC4)C5)c2)CCC3)n1 [US20250179094, Compound 70] | 2.3
16 | Cc1cccc(-c2nn3c(c2-c2ccnc(-c4nc5c([nH]4)CN(C(=O)N4CCCC4)C5)c2)CCC3)n1 [US20250179094, Compound 72] | 2
17 | CCn1cc(-c2ccnc(-c3nc4c([nH]3)CN(C(=O)N3CCN(C)CC3)C4)c2)c(-c2cccc(C)n2)n1 [US20250179094, Compound 38] | 4.4
18 | Cc1cccc(-c2nc[nH]c2-c2ccnc(-c3nc4c([nH]3)CN(C(=O)N3CCCC3)C4)c2)n1 [US20250179094, Compound 6] | 22
19 | Cc1cccc(-c2nc[nH]c2-c2ccnc(-c3nc4c([nH]3)CN(C(=O)N3CCN(C)CC3)C4)c2)n1 [US20250179094, Compound 7] | 1.1

Source: BindingDB's records for patent US20250179094 (Medinno Pharmaceutical Technology (Zhuhai) Co., 2025)
